The record followed here is ChEMBL document CHEMBL5291721, “A preclinical secondary pharmacology resource illuminates target-adverse drug reaction associations of marketed drugs” (Nat Commun, 2023).

Bounds are passed on as bounds.

The target of assay [1] is T1, Amine oxidase [flavin-containing] A (Homo sapiens, UniProt P21397).
T1 sequence (P21397 whole entry): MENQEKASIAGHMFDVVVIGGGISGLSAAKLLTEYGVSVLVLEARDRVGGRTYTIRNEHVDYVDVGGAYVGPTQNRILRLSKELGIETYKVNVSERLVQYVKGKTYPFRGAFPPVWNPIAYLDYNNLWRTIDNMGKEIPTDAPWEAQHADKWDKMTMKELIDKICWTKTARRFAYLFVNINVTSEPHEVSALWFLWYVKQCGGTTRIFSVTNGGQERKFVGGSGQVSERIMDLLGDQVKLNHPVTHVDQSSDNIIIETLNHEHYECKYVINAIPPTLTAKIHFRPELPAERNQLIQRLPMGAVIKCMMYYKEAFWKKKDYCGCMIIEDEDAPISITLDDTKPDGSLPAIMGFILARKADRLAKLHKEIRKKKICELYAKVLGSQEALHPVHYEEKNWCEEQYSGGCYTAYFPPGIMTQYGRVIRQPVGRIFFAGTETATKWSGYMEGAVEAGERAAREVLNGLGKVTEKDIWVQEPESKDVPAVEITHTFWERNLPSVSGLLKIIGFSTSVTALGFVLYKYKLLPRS
The format is functional.

Assay [2] deals with T2, Glucocorticoid receptor (Homo sapiens, UniProt P04150).
T2 sequence (P04150 whole entry): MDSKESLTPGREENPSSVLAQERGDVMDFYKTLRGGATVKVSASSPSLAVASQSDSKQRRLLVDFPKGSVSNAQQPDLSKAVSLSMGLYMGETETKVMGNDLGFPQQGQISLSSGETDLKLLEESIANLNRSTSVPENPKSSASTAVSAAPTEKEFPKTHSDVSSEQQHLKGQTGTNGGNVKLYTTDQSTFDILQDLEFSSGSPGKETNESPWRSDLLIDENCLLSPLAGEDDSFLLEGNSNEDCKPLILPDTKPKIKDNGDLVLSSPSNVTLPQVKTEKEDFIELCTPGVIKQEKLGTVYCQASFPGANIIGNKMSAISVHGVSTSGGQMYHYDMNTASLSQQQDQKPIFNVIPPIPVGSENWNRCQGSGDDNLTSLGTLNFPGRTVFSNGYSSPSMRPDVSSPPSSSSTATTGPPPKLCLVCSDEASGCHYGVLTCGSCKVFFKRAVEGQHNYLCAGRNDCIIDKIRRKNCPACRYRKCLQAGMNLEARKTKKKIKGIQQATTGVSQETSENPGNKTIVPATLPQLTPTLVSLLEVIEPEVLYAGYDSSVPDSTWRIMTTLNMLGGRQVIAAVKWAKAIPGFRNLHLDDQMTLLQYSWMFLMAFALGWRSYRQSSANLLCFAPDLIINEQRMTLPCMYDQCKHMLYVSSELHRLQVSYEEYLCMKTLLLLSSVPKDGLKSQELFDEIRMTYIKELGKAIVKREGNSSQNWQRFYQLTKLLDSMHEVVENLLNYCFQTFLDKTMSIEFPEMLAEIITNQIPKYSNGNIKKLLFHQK

Assay [3] addresses T3, 5-hydroxytryptamine receptor 2C (Homo sapiens, UniProt P28335).
T3 sequence (P28335 whole entry): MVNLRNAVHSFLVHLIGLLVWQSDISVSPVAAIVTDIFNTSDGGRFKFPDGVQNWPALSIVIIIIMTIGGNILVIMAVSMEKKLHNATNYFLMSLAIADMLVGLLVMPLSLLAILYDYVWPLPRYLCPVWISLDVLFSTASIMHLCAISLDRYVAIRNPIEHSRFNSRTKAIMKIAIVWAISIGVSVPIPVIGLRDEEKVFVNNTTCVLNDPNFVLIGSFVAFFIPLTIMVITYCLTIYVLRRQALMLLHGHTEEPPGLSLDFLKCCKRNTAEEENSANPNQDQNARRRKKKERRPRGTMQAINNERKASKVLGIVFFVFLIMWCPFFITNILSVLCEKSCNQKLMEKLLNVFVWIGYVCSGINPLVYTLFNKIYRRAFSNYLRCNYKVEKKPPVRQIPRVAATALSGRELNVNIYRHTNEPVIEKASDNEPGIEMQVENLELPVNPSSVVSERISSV

For assay [4], the target named is T4, Prostaglandin G/H synthase 1 (Rattus norvegicus, UniProt Q63921).
T4 sequence (Q63921 whole entry): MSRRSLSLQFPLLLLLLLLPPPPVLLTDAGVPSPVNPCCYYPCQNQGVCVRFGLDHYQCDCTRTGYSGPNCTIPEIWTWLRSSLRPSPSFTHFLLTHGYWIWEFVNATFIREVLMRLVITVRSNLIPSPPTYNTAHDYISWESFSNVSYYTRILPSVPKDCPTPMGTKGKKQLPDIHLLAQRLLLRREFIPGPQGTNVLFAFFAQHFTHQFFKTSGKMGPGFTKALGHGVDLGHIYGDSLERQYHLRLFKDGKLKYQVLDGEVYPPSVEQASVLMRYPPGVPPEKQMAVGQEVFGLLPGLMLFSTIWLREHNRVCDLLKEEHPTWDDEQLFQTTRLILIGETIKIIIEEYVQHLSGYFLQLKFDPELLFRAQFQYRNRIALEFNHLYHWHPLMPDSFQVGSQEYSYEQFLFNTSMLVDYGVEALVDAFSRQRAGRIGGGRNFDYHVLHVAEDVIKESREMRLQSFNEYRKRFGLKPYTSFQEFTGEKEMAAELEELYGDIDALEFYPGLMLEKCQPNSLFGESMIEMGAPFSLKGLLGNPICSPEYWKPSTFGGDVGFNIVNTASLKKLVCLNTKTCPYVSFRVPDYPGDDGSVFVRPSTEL
The format is functional.

The target in assay [5] is D(3) dopamine receptor (Homo sapiens, UniProt P35462).
D(3) dopamine receptor, sequence (P35462 whole entry): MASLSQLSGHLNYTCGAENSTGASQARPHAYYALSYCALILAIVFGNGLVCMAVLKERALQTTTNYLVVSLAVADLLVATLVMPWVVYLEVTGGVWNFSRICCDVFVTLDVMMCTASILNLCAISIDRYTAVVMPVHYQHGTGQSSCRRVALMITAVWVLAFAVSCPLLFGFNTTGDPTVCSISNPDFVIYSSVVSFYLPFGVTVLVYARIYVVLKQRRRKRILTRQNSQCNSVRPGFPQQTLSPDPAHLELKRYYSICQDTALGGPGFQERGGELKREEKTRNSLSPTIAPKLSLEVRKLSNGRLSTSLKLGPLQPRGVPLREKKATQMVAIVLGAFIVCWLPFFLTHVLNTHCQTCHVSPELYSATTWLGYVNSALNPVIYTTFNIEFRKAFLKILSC
The target of assay [6] is T5, Type-1 angiotensin II receptor (Homo sapiens, UniProt P30556).
T5 sequence (P30556 whole entry): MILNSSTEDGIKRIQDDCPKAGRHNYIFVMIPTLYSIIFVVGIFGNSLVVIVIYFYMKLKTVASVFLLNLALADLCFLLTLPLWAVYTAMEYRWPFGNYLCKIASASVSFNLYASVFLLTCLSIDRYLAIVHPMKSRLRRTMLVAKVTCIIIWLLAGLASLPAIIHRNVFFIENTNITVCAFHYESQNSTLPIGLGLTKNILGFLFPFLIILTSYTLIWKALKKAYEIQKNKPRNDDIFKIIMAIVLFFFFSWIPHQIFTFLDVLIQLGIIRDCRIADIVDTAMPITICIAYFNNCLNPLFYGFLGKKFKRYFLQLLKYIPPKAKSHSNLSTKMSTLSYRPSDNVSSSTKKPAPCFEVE

The target of assay [7] is Voltage-gated inwardly rectifying potassium channel KCNH2 (Homo sapiens, UniProt Q12809). The format is functional.
Voltage-gated inwardly rectifying potassium channel KCNH2, sequence (Q12809 whole entry): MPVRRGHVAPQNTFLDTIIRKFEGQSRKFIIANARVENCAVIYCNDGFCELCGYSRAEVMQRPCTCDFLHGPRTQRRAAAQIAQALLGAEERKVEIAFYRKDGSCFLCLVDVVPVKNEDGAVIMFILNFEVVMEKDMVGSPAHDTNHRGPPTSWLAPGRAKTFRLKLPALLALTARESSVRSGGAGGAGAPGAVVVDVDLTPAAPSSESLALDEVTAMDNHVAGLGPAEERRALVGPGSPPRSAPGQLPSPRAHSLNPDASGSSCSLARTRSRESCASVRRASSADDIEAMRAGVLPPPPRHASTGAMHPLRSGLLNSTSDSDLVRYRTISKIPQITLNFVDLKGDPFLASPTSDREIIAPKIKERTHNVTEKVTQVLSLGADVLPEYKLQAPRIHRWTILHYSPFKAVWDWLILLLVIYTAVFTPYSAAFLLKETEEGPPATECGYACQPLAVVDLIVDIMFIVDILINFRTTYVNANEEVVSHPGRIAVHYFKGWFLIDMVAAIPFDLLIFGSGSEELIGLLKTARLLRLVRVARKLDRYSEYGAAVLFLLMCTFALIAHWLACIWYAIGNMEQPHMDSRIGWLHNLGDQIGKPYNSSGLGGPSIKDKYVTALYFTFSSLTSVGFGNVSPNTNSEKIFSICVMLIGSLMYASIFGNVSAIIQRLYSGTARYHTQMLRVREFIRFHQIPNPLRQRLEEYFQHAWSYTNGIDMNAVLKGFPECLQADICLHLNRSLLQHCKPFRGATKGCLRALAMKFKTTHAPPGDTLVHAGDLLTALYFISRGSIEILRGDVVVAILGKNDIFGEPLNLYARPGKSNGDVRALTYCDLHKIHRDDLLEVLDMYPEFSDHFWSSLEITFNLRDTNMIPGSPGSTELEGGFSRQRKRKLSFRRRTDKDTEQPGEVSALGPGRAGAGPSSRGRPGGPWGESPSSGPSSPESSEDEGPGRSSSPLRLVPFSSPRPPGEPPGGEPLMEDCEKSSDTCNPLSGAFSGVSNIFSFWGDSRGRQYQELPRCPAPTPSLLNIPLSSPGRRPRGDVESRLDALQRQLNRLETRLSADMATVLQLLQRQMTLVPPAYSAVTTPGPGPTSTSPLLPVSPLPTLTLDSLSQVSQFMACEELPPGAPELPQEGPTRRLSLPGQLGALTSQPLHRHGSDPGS
Further: assay procedure not described here.

In the case of `Cn1c(=O)c2c(ncn2CCOC(=O)C(C)(C)Oc2ccc(Cl)cc2)n(C)c1=O` [THEOFIBRATE], the AC50 in assay [1], in assay [2], in assay [3], in assay [4], in assay [5] and in assay [6] was greater than 30 µM in each case. Also, the AC50 in assay [7] is greater than 30 µM.
In the case of `COc1cc(C(=O)NC2CCCNC2)cc(OC)c1OC` (stereo not given) [TROXIPIDE], the AC50 is greater than 30 µM in assay [1]; greater than 30 µM in assay [2]; greater than 30 µM in assay [3]; greater than 10 µM in assay [4]; greater than 30 µM in assay [5]; greater than 30 µM in assay [6]. Besides, the AC50 in assay [7] is greater than 30 µM.
With `CC(C)(C)NCC(O)c1ccccc1Cl` (stereo not given) [TULOBUTEROL], the AC50 in assay [1], in assay [2], in assay [3], in assay [4], in assay [5] and in assay [6] was greater than 30 µM each time. Besides, in assay [7], the AC50 is greater than 30 µM.
Consider `CC(C(=O)O)c1ccc2c(c1)CC(=O)c1ccccc1S2` (stereo not given) [ZALTOPROFEN], for which the AC50 in assay [1], in assay [2], in assay [3], in assay [4], in assay [5] and in assay [6] was greater than 30 µM in each case. This compound also yielded an AC50 in assay [7] greater than 30 µM.
With `CC(c1cc2ccccc2s1)N(O)C(N)=O` (stereo not given) [ZILEUTON], the AC50 in assay [1] was greater than 10 µM; in assay [2], greater than 30 µM; in assay [3], greater than 30 µM; in assay [4] it was greater than 30 µM; in assay [5] it was greater than 30 µM; in assay [6], greater than 10 µM. In assay [7], this compound returned an AC50 greater than 30 µM.
